Assay results from publication PMC9741201, “X-ray Structures and Computational Studies of Two Bioactive 2-(Adamantane-1-carbonyl)-N-substituted Hydrazine-1-carbothioamides” (Molecules, 2022).
Read-outs that look alike come from different tables or passages of the source.

Biological target: urease (Jack bean) (Canavalia ensiformis, UniProt P07374)
Assay: in vitro urease inhibition, indophenol method
Format: biochemical

Chain of urease (Jack bean) (P07374 whole entry, looked up): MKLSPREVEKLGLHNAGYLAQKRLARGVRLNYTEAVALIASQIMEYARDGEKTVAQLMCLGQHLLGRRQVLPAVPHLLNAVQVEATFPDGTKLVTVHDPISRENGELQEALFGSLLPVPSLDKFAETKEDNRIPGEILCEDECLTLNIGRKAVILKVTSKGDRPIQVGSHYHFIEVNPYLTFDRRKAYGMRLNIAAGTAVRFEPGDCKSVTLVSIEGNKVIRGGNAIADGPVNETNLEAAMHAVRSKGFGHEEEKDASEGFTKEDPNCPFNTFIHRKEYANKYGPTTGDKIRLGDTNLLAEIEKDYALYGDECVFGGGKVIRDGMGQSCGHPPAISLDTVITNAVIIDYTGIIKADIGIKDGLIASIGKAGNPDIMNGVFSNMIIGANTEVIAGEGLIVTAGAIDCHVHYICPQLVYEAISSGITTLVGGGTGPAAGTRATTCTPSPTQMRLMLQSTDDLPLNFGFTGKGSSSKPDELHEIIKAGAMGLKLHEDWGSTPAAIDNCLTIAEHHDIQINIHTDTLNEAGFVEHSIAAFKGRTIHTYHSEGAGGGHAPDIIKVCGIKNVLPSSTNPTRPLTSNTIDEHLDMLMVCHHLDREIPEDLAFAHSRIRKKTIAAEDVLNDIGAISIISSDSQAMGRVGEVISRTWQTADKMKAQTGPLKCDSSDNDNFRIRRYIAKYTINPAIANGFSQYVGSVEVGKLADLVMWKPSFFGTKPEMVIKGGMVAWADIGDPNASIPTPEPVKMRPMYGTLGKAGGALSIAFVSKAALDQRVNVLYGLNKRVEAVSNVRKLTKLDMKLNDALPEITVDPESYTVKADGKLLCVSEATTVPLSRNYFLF

Compound	IC50	IC50 (read-out: IC50 ± SEM (μM) *)
CC(C)(C)NC(=S)NNC(=O)C12CC3CC(CC(C3)C1)C2 [compound 1, 2-(Adamantane-1-carbonyl)-N-(tert-butyl)hydrazine-1-carbothioamide]	1.2 ± 0.07 µM	
O=C(NNC(=S)NC1CCCCC1)C12CC3CC(CC(C3)C1)C2 [compound 2, 2-(Adamantane-1-carbonyl)-N-cyclohexylhydrazine-1-carbothioamide]		2.44 ± 0.11 µM
